Measurements: patent US12691070B2, “Cationic lipids and preparation method thereof” (RiboX Therapeutics HK Limited, priority 2023, dated 2026)

Tests used:
[1] = LNP size and polydispersity index (PDI) by dynamic light scattering; format: physicochemical; conditions: for Size: in nm (unit assumed)
Method in brief: (§1)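 Ribogreen fluorescence with and without Triton X-100 gave encapsulation as 100% − (intact/lysed) signal; DLS size, PDI and zeta potential measured on a Zetasizer. Particles: 50:10:38.5:1.5 lipid mix, luciferase circRNA or mRNA, lipid:nucleotide 15 or 6, microfluidic assembly at pH 4.5, PBS-dialyzed.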

[2] = test system: Alanine Aminotransferase (ALT); assay: Liver enzyme elevation in serum, ALT; format: in vivo; conditions: cirRNA (SEQ ID NO: 1) LNPs, BALB/C mice, intravenous 0.5 MPK
Description: (§2) 6-8 week old, female BALB/C mice were injected with 0.5 mg*kg-1 of RNA LNPs by intravenous injection. At 2 and 24 hours post injection, animals were bled and sera concentrations of Alanine Aminotransferase (ALT) and Aspartate Aminotransferase (AST) were determined by a blood chemistry analyzer.

[3] = test system: MCP-I; assay: MCP-I cytokine elevation in serum; format: in vivo; conditions: cirRNA (SEQ ID NO: 1) LNPs, mice
Description: 6-8 week old, female BALB/C mice were injected with 0.5 mg*kg-1 of RNA LNPs by intravenous injection. At 2 and 24 hours post injection, animals were bled and sera concentrations of MCP-I were determined by an immunoassay (Luminex).

[4] = test system: Aspartate Aminotransferase (AST); assay: Liver enzyme elevation in serum, AST; format: in vivo; conditions: cirRNA (SEQ ID NO: 1) LNPs, BALB/C mice, intravenous 0.5 MPK
Description: as §2

[5] = test system: RAW 264.7 cells; assay: In vitro toxicity (CellTiter-Glo cell viability), RAW 264.7; format: cell-based;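 also: percent of untreated cells luminescence signal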
Method in brief: (§3)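 RNA-LNPs 1 μg/mL; 72 h post-transfection; CellTiter-Glo luminescence read-out; % viability calculated from signal.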

[6] = test system: Hep G2 cells; assay: In vitro toxicity (CellTiter-Glo cell viability), Hep G2; format: cell-based;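 also: percent of untreated cells luminescence signal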
Method in brief: as §3

[7] = RNA encapsulation efficacy by Quant-IT Ribogreen kit; format: physicochemical; conditions: for Encapsulation Efficiency %: LNP with cirRNA (SEQ ID NO: 1); for Encapsulation Efficiency: LNP with mRNA (SEQ ID NO: 2)
Method in brief: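 LNPs of ionizable lipid/DSPC/cholesterol/DMG-PEG 2000 (50:10:38.5:1.5) made by microfluidic mixing of luciferase circRNA or mRNA in pH 4.5 acetate with lipids in ethanol (3:1, 12 ml/min), ionizable lipid:nucleotide 15 or 6, then dialyzed against PBS. Size, PDI (DLS) and zeta potential on Zetasizer; encapsulation by Ribogreen ± Triton X-100.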

[8] = test system: BALB/C mice; assay: Local tolerance determination by footpad injection; format: in vivo; conditions: cirRNA (SEQ ID NO: 1) LNP, 0.175 mg*kg-1 subcutaneous into the footpad, 24 hours post minus prior
Description: 6-8 week old, female BALB/C mice were injected with 0.175 mg*kg-1 RNA LNPs by subcutaneous injection into the footpad. Prior to, and 24 hours post injections, injected footpad thickness was determined by a caliper.

[9] = test system: RAW 264.7 cells; assay: In vitro expression of firefly-luciferase, RAW 264.7; format: cell-based
Method in brief: (§4)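 Cells were transfected with firefly-luciferase-encoding RNA-LNPs at 100 ng/mL. After 72 hours they were washed and lysed, and luciferase activity in the lysates was read by luminometry.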

[10] = LNP zeta potential (Zetasizer); format: physicochemical
Method in brief: as §1

[11] = test system: BALB/C mice; assay: In vivo expression, whole-body luminescence (IVIS)
Description: 6-8 week old, female BALB/C mice were injected with 0.05 mg*kg-1 of RNA-LNPs encoding for firefly-luciferase by intravenous injection. At 6 hours post injection, animals were intraperitoneally injected with 15 mg/ml of Luciferin substrate and whole-body luminescence was determined by a bioluminescent in vivo imaging system (IVIS).

[12] = test system: Hep G2 cells; assay: In vitro expression of firefly-luciferase, Hep G2; format: cell-based
Method in brief: as §4

[13] = cirRNA (SEQ ID NO: 1) LNPs, RAW 264.7 cells
[14] = mRNA (SEQ ID NO: 2) LNP, 1 μg/mL, 72 hours post transfection
[15] = cirRNA (SEQ ID NO: 1) LNPs, Hep G2 cells
[16] = cirRNA (SEQ ID NO: 1) LNPs, firefly-luciferase luminescence, RAW 264.7 cells
[17] = mRNA (SEQ ID NO: 2) LNP, 100 ng/mL, 72 hours post transfection, luciferase activity
[18] = cirRNA (SEQ ID NO: 1) LNPs, BALB/C mice
[19] = mRNA (SEQ ID NO: 2) LNP, 0.05 mg*kg-1 intravenous, 6 hours post injection
[20] = cirRNA (SEQ ID NO: 1) LNPs, firefly-luciferase luminescence, Hep G2 cells

Row | Structure (SMILES) | PDI ([1]; LNP with cirRNA (SEQ ID NO: 1)) | Size ([1]; LNP with cirRNA (SEQ ID NO: 1)) | PDI ([1]; LNP with mRNA (SEQ ID NO: 2)) | Size ([1]; LNP with mRNA (SEQ ID NO: 2)) | ALT in Sera (IU/L) 2 hours After 0.5 MPK Injection [2] [IU/L] | ALT in Sera (IU/L) 24 hours After 0.5 MPK Injection [2] [IU/L] | MCP-I in Sera 2 hours After 0.5 MPK Injection [3] [pg/mL] | MCP-I in Sera 24 hours After 0.5 MPK Injection [3] [pg/mL] | AST in Sera (IU/L) 2 hours After 0.5 MPK Injection [4] [IU/L] | AST in Sera (IU/L) 24 hours After 0.5 MPK Injection [4] [IU/L] | In vitro Viability RAW [5, 13] [%] | In vitro Viability RAW [5, 14] [%] | In vitro Viability HepG2 [6, 15] [%] | In vitro Viability HepG2 [6, 14] [%] | Encapsulation Efficiency % [7] [%] | Encapsulation Efficiency [7] [%] | Footpad Thickness (24 h−0 h, mm) [8] [mm] | In vitro Expression RAW [9, 16] | In vitro Expression RAW [9, 17] | Zeta (mV) ([10]; LNP with cirRNA (SEQ ID NO: 1)) | also measured
1 | CCCCC/C=C\C/C=C\CCCCCCCCN(CCCCCCCC(=O)OC(CCCCCCCC)CCCCCCCC)CCOC(=O)NCCN1CCCCC1 [Lipid 127, heptadecan-9-yl 8-(((9Z,12Z)-octadeca-9,12-dien-1-yl)(2-(((2-(piperidin-1-yl)ethyl)carbamoyl)oxy)ethyl)amino)octanoate] | 0.04 | 71.42 | 0.1822 | 57.31 | 74.17 | 54.90 | 301.91 | 128.65 | 161.17 | 91.53 | 76 | 109 | 99 | 100 | 95 | 87 | 0.94 | 4.87E+06 | 5.53E+05 | −3.13 | Zeta (mV) ([10]; LNP with mRNA (SEQ ID NO: 2)): −1.439 mV; In vivo Expression (Whole Body) [11, 18]: 1.14E+09; In vivo Expression (Whole Body) [11, 19]: 8.69E+07; In vitro Expression HepG2 [12, 20]: 2.14E+06; In vitro Expression HepG2 [12, 17]: 1.75E+06
2 | CCCCC/C=C\C/C=C\CCCCCCCCN(CCCCCCCC(=O)OC(CCCCCCCC)CCCCCCCC)CCOC(=O)NCCN1CCCC1 [Lipid 128, heptadecan-9-yl 8-(((9Z,12Z)-octadeca-9,12-dien-1-yl)(2-(((2-(pyrrolidin-1-yl)ethyl)carbamoyl)oxy)ethyl)amino)octanoate] | 0.1 | 93.54 | 0.1021 | 75.38 | 58.17 | 56.00 | 6355.24 | 318.11 | 195.53 | 131.30 | 59 | 92 | 103 | 94 | 94 | 91 | 0.98 | 5.15E+06 | 1.72E+06 | 0.282 | Zeta (mV) ([10]; LNP with mRNA (SEQ ID NO: 2)): 6.141 mV; In vivo Expression (Whole Body) [11, 18]: 5.46E+08; In vivo Expression (Whole Body) [11, 19]: 6.98E+08; In vitro Expression HepG2 [12, 20]: 4.01E+06; In vitro Expression HepG2 [12, 17]: 2.16E+07
